Several values for one entry are separate records, joined by “and”; a condition that tells them apart may be missing. Equal values may be shown once.
Columns and labels:
[1] = test system: PBMC from allergic donors; assay: IL-5 ELISPOT with extract-stimulated short-term lines; type: cell-based, human; settings: positive donor/peptide response
Method: (§1) Spots were counted by computer-assisted image analysis (Zeiss, KS-ELISPOT reader, Munich, Germany).
(§2) Each assay was performed in triplicate. The level of statistical significance was determined with a Student's t-test using the mean of triplicate values of the response against relevant pools or individual peptides versus the response against the DMSO control.

[2] = test system: PBMC from allergic donors; assay: Dual ELISPOT, total IL-5 and IFN-γ response (SFC); type: cell-based, human; settings: sum of IFNg and IL-5
Method: as §1, §2

3324.1102 (DTCRARFITKLSEFI)
Response (SFC/10^6) IL-5 ([1]; one donor per table line): 67 SFC/10^6 | Response (SFC/10^6) Total ([2]; one donor per table line): 67 SFC/10^6

3324.1130 (LISVEEFQTMMTSEM)
Response (SFC/10^6) IL-5 ([1]; one donor per table line): 153 SFC/10^6 | Response (SFC/10^6) Total ([2]; one donor per table line): 153 SFC/10^6

CC[C@H](C)[C@H](N)C(=O)N[C@H](C(=O)N[C@@H](CC(C)C)C(=O)N[C@@H](CC(N)=O)C(=O)N[C@@H](Cc1c[nH]cn1)C(=O)N[C@@H](CCSC)C(=O)N[C@H](C(=O)NCC(=O)N[C@@H](C)C(=O)N[C@@H](CCC(N)=O)C(=O)N[C@@H](CO)C(=O)NCC(=O)N[C@@H](CCCCN)C(=O)NCC(=O)N[C@H](C(=O)O)[C@@H](C)O)[C@@H](C)O)C(C)C [3324.0987]
Response (SFC/10^6) IL-5 ([1]; one donor per table line): 507 SFC/10^6 | Response (SFC/10^6) Total ([2]; one donor per table line): 507 SFC/10^6

3324.1105 (LSEFITGASVRLQCR)
Response (SFC/10^6) IL-5 ([1]; one donor per table line): 73 SFC/10^6 | Response (SFC/10^6) Total ([2]; one donor per table line): 73 SFC/10^6

3324.1001 (RKDLDIFEQYNLEMA)
Response (SFC/10^6) IL-5 ([1]; one donor per table line): 117 SFC/10^6 | Response (SFC/10^6) Total ([2]; one donor per table line): 117 SFC/10^6

3324.1596 (AAEFGTVDSATLIVE)
Response (SFC/10^6) IL-5 ([1]; each table line is one donor): 3003 SFC/10^6 | Response (SFC/10^6) Total ([2]; each table line is one donor): 3003 SFC/10^6

CC[C@H](C)[C@H](NC(=O)[C@H](CO)NC(=O)[C@H](CC(C)C)NC(=O)[C@H](C)NC(=O)[C@H](CC(C)C)NC(=O)[C@H](CC(N)=O)NC(=O)[C@H](CCCCN)NC(=O)[C@H](CCC(=O)O)NC(=O)[C@H](CC(=O)O)NC(=O)[C@H](CO)NC(=O)CN)C(=O)N[C@@H](CCCCN)C(=O)N[C@@H](Cc1ccc(O)cc1)C(=O)N[C@@H](CC(N)=O)C(=O)N[C@@H](CCCCN)C(=O)O [3324.0657]
Response (SFC/10^6) IL-5 ([1]; one donor per table line): 1000 SFC/10^6 and 693 SFC/10^6 | Response (SFC/10^6) Total ([2]; one donor per table line): 1000 SFC/10^6 and 693 SFC/10^6

3324.0989 (SIYSRLHNLNKEFFP)
Response (SFC/10^6) IL-5 ([1]; one donor per table line): 117 SFC/10^6 | Response (SFC/10^6) Total ([2]; one donor per table line): 117 SFC/10^6

CSCC[C@H](NC(=O)[C@H](Cc1ccccc1)NC(=O)[C@H](C)N)C(=O)N[C@@H](CC(C)C)C(=O)N[C@@H](C)C(=O)N[C@@H](Cc1c[nH]c2ccccc12)C(=O)N[C@@H](CC(N)=O)C(=O)N[C@@H](Cc1ccc(O)cc1)C(=O)NCC(=O)N[C@H](C(=O)N1CCC[C@H]1C(=O)N[C@@H](CCCNC(=N)N)C(=O)N[C@H](C(=O)N[C@@H](CCSC)C(=O)N[C@@H](CO)C(=O)O)C(C)C)C(C)C [3324.0977]
Response (SFC/10^6) IL-5 ([1]; one donor per table line): 1413 SFC/10^6 and 157 SFC/10^6 | Response (SFC/10^6) Total ([2]; one donor per table line): 1413 SFC/10^6 and 157 SFC/10^6

3324.1603 (DAYLGTSYVIVIKEP)
Response (SFC/10^6) IL-5 ([1]; each table line is one donor): 290 SFC/10^6 | Response (SFC/10^6) Total ([2]; each table line is one donor): 290 SFC/10^6

3324.0839 (ARKNFLESVKYVQSN)
Response (SFC/10^6) IL-5 ([1]; one donor per table line): 487 SFC/10^6 | Response (SFC/10^6) Total ([2]; one donor per table line): 487 SFC/10^6

3324.0968 (IRYNSLKHSLGGEKI)
Response (SFC/10^6) IL-5 ([1]; one donor per table line): 137 SFC/10^6 | Response (SFC/10^6) Total ([2]; one donor per table line): 137 SFC/10^6

3324.1196 (AALTKAITAMTQAQK)
Response (SFC/10^6) IL-5 ([1]; each table line is one donor): 998 SFC/10^6 | Response (SFC/10^6) Total ([2]; each table line is one donor): 998 SFC/10^6

3324.1043 (SNVANLRNWIISNTV)
Response (SFC/10^6) IL-5 ([1]; one donor per table line): 177 SFC/10^6 | Response (SFC/10^6) Total ([2]; one donor per table line): 177 SFC/10^6

3324.1550 (GVTVKKTNQALIFGI)
Response (SFC/10^6) IL-5 ([1]; one donor per table line): 93 SFC/10^6 | Response (SFC/10^6) Total ([2]; one donor per table line): 93 SFC/10^6

3324.1036 (TLPTILQIASVTKMS)
Response (SFC/10^6) IL-5 ([1]; one donor per table line): 120 SFC/10^6 | Response (SFC/10^6) Total ([2]; one donor per table line): 120 SFC/10^6

3324.1137 (KQQGIRYANPIAFFR)
Response (SFC/10^6) IL-5 ([1]; one donor per table line): 123 SFC/10^6 | Response (SFC/10^6) Total ([2]; one donor per table line): 123 SFC/10^6

3324.0838 (LESVKYVQSNGGAIN)
Response (SFC/10^6) IL-5 ([1]; one donor per table line): 467 SFC/10^6 | Response (SFC/10^6) Total ([2]; one donor per table line): 467 SFC/10^6

3324.0522 (IIFSKNLNIKLNMPL)
Response (SFC/10^6) IL-5 ([1]; one donor per table line): 863 SFC/10^6 | Response (SFC/10^6) Total ([2]; one donor per table line): 863 SFC/10^6

3324.0354 (GIKYMVIQGEAGAVI)
Response (SFC/10^6) IL-5 ([1]; one donor per table line): 350 SFC/10^6 | Response (SFC/10^6) Total ([2]; one donor per table line): 350 SFC/10^6

CC[C@H](C)[C@H](NC(=O)[C@H](Cc1ccccc1)NC(=O)[C@H](CCCCN)NC(=O)[C@H](Cc1ccc(O)cc1)NC(=O)[C@H](CO)NC(=O)[C@@H](N)CC(=O)O)C(=O)N1CCC[C@H]1C(=O)N[C@H](C(=O)N[C@@H](CC(C)C)C(=O)N[C@H](C(=O)N[C@@H](C)C(=O)N[C@@H](C)C(=O)N[C@H](C(=O)N[C@@H](CCCCN)C(=O)N[C@@H](CCC(N)=O)C(=O)O)C(C)C)C(C)C)[C@@H](C)O [3324.1165]
Response (SFC/10^6) IL-5 ([1]; each table line is one donor): 382 SFC/10^6 and 78 SFC/10^6 | Response (SFC/10^6) Total ([2]; each table line is one donor): 382 SFC/10^6 and 78 SFC/10^6

3324.0525 (DKSMKVTVAFNQFGP)
Response (SFC/10^6) IL-5 ([1]; one donor per table line): 323 SFC/10^6 | Response (SFC/10^6) Total ([2]; one donor per table line): 323 SFC/10^6

3324.0973 (FEGRLLKAATAFMLA)
Response (SFC/10^6) IL-5 ([1]; one donor per table line): 113 SFC/10^6 and 953 SFC/10^6 | Response (SFC/10^6) Total ([2]; one donor per table line): 113 SFC/10^6 and 953 SFC/10^6

3324.1591 (FIFGEARSLYLNTEL)
Response (SFC/10^6) IL-5 ([1]; each table line is one donor): 500 SFC/10^6 and 133 SFC/10^6 | Response (SFC/10^6) Total ([2]; each table line is one donor): 500 SFC/10^6 and 133 SFC/10^6

3324.1129 (ELADILRSLGSDVGE)
Response (SFC/10^6) IL-5 ([1]; one donor per table line): 380 SFC/10^6 | Response (SFC/10^6) Total ([2]; one donor per table line): 380 SFC/10^6

3324.0960 (SELRRVDIAVVSRKE)
Response (SFC/10^6) IL-5 ([1]; one donor per table line): 120 SFC/10^6 | Response (SFC/10^6) Total ([2]; one donor per table line): 120 SFC/10^6

3324.0966 (EYWILTAAHCVAGQT)
Response (SFC/10^6) IL-5 ([1]; one donor per table line): 203 SFC/10^6 | Response (SFC/10^6) Total ([2]; one donor per table line): 203 SFC/10^6

3324.1600 (EYIEAAKWLLPPPKV)
Response (SFC/10^6) IL-5 ([1]; each table line is one donor): 980 SFC/10^6 | Response (SFC/10^6) Total ([2]; each table line is one donor): 980 SFC/10^6

3324.0988 (RIYVDIVLNHMTGAQ)
Response (SFC/10^6) IL-5 ([1]; one donor per table line): 117 SFC/10^6 | Response (SFC/10^6) Total ([2]; one donor per table line): 117 SFC/10^6
